Test results as given in a melting point compilation (Tetko et al.; mined from patent text by program, amines drawn as free bases though some values may be those of a salt).

Compound	melting point
COC(=O)C(C)Oc1ccc(N(C)c2nnc3cc(Cl)ccc3n2)cc1 (stereo not given)	120 °C
NC[C@@H]1C[C@@H](SC(c2ccccc2)(c2ccccc2)c2ccccc2)CN1S(=O)(=O)c1ccc2ccccc2c1	88 to 89 °C
COc1cc(C(=O)N2CCN(C(=O)c3cc(OC)c(OC)c(OC)c3)C(COC(=O)N3CCCCC3)C2)cc(OC)c1OC (stereo not given)	147 °C
CNC(=O)COC(=O)N1CCN(CCc2ccc3ccccc3c2)CC1	133 to 135 °C
COc1ccc2cc(C(N)=O)ccc2c1	224 to 226 °C
CC(=O)Oc1ccc(C(=O)c2ccc(OC(C)=O)cc2)cc1	120 to 122 °C
NN(Cc1ccccc1)C(=S)Nc1ccccc1	121 to 123 °C
CCOC(=O)c1c(-c2ccccc2C)c2cc3c(cc2n(C)c1=O)CCC3	134 to 135 °C
C=CCNC(=O)N1CC(Oc2cccc(C)c2)C1	95 to 96 °C
NC(=O)C1CCCc2c1c1cc(OCCCC(=O)O)ccc1n2Cc1ccccc1 (stereo not given)	199 to 200 °C
Clc1cccnc1-c1ccc2[nH]nc(Nc3cnccn3)c2c1	228 to 230 °C
CC(=O)OC1CSC(Oc2cccnc2-c2ccc(F)cc2)C(OC(C)=O)C1OC(C)=O (stereo not given)	149 °C
CCCN(CCC)C1Cc2cc(C)cc3ncn(c23)C1 (stereo not given)	91 to 94 °C
CCCn1c(=O)c2[nH]c(/C=C/c3ccccc3)nc2n(CCC)c1=O	259 to 261 °C
CCOc1cccc(NCCSCc2[nH]cnc2C)n1	172 °C
COC(=O)c1cccc(C=NO)c1	107 to 108 °C
COc1cc(C(=O)N2CCCCc3cc(Cl)ccc32)ccc1OCc1ccccc1Cl	135 °C
COc1cc(OC)c(S(C)(=O)=O)cc1C(=O)O	292 °C
CCC(C(=O)N(C)C)C(C#N)(c1ccccc1)c1ccccc1 (stereo not given)	170 to 172 °C
CS(=O)(=O)NC1CCC(NC(=O)c2ccc(F)cc2)CC1 (stereo not given)	269 to 270 °C
O=Cc1c(Cl)cc(CO)cc1Cl	109 to 110 °C
Cc1cc(N2CCN(C(=O)N3CCN(S(=O)(=O)c4ccc(Br)cc4)CC3)CC2)ncn1	215 to 216 °C
CSc1ccc2n1CCC2C#N (stereo not given)	58 to 58.5 °C
CCCCCCCCCCCC(=O)N[C@H]1CCCNC(=O)C1	93 to 94 °C

Compound	melting point
Cc1ccc(CCc2cc3c(s2)NC(=S)CN=C3c2ccccc2Cl)cc1	190 to 191 °C
Clc1ccc(-c2cc(C3CCNCC3)n[nH]2)cc1	174 to 176 °C
NC1=NN(c2ccccn2)CC1	168 to 170 °C
C1=C(c2cccs2)NN=C(c2cccs2)C1c1cccs1 (stereo not given)	168 °C
Cn1c2c(c3ccccc31)Cc1c(CO)c(CO)c(-c3ccc(Cl)cc3)n1C2	238 to 239 °C
COC(=O)CSc1nc(N2CCN(c3ncccn3)CC2)ncc1[N+](=O)[O-]	250 to 252 °C
CC(=O)Nc1cccc2c1C(=O)c1c-2n[nH]c1C(C)C	> 250 °C
CCOC(=O)C(C(=O)OCC)=C1NC(=O)N(c2ccc([N+](=O)[O-])cc2OC)C1=O	170 to 172 °C
Cc1cc(O)c(C)c(C)c1OCc1ccccc1	101 to 103 °C
CCOC(=O)Cc1c2cc(F)ccc2n2c(-c3ccc(SC)cc3)nccc12	59 to 62 °C
CNc1nc(-c2cccc(NC(=O)c3ccc(OC)cc3)c2)c2cc(OC)c(OC)cc2n1	219 to 221 °C
O=C(O)c1cc(S(=O)(=O)N2CCCC(OCc3ccccc3)C2)ccc1Br (stereo not given)	177 to 178 °C
CC(O)CNc1c(F)cc2c(=O)c(C(=O)O)cn(-c3cc(N)c(F)cc3F)c2c1Cl (stereo not given)	225 to 226 °C
CCCn1c(=O)c(C#N)c(N2CCN(C(=O)c3cccs3)CC2)c2cccnc21	196 °C
Cc1c(-c2ccncc2)[nH]c(-c2ccncc2)c1C(=O)OCc1ccccc1	204 to 205 °C
CC(C)(C#N)c1cc(-n2cncc2C=O)cc(C(C)(C)C#N)c1	108 to 111 °C
COC(=O)Cc1cn(Cc2ccc(OCc3ccccc3)cc2)nc1-c1ccc(F)cc1	58 to 59 °C
O=C(NO)c1ccc(CNC(=O)c2[nH]c(-c3ccccc3)cc2-c2ccc(F)c(F)c2)cc1	148 to 150 °C
CC(C)(c1ccc(OS(=O)(=O)c2ccccc2)cc1)c1ccc(OS(=O)(=O)c2ccccc2)cc1	92 to 93 °C
CCCCCCCCCCCCCCCCCCCCCCOC(=O)P(=O)(O)O	92 to 93 °C
CCOC(=O)C1=C(COCCNC(N)=S)NC(C)=C(C(=O)OC)C1c1ccccc1Cl (stereo not given)	204 °C
Fc1ccc(-c2nnc(S)nc2-c2ccc(F)cc2)cc1	180 to 182 °C
O=C(Nc1cccc2c(=O)nc[nH]c12)c1c(Cl)cccc1Cl	> 250 °C
CC(C)CNC(=O)[C@H](C)C[C@H](O)[C@H](CC1CCCCC1)NC(=O)OC(C)(C)C	125 to 126 °C

Compound	melting point
Cc1ccc2c(c1)C=Cc1cc(C(C)C)ccc1C2c1cn(Cc2ccc(C(=O)O)o2)c(=O)[nH]c1=O (stereo not given)	150 to 160 °C
S=C1NC2(CCCCC2)NC12CCCCC2	229 °C
Cc1ccc(-n2c(-c3ccc(C=Cc4ccccc4)cc3)ccc2-c2ccc(C=Cc3ccccc3)cc2)cc1	297 to 298 °C
O=C(NCc1ccc(Cl)cc1)c1cnc2ccc(CC3CCOCC3)cc2c1O	184 to 185 °C
CCOCC(=O)Nc1ncc(Cc2cc(OC)c(OC)c(OC)c2)c(N)n1	175 to 176 °C
Cc1cc2c(cc1C1=NNC(=O)CC1C)NC(=O)CO2 (stereo not given)	163 to 166 °C
CCC1(CCn2ccnc2)SCCS1	118 to 121 °C
CCOC(=O)c1cn(C)c2cnc3cc(F)c(N4CCN(C(=O)CC(F)(F)F)C(c5ccc(OCc6ccccc6)c(OC)c5)C4)cc3c2c1=O (stereo not given)	154 °C
O=C(O)c1cc2c(c([N+](=O)[O-])c1)OC(C(Cl)(Cl)Cl)OC2C(Cl)(Cl)Cl (stereo not given)	211 to 212 °C
COc1cc(C=C2C(=O)CCc3ccc([N+](=O)[O-])cc32)c([N+](=O)[O-])cc1OC	125 °C
Cc1cc(Nc2ccc(Cl)cc2)nc(-n2nc(C)cc2C)n1	181 to 183 °C
CC(C)c1cccc(C(C)C)c1NC(=O)Nc1nnnn1Cc1ccccc1	195 to 197 °C
Cc1nccn1-c1nc(-c2ccc(Cl)cc2)c(CCCOc2ccccc2CCCO)o1	119 to 120 °C
Cc1cccc(-c2[nH]c(C(C)C)nc2-c2cccc(-c3ccc(NS(C)(=O)=O)cc3)c2)n1	128 to 130 °C
CN1CCC(O)(c2cc(F)c(Br)cc2F)CC1	133 to 135 °C
CCOCc1nc2c(N)nc3cccnc3c2n1CCCC(C)N(OC)C(=O)NC(C)C (stereo not given)	174 to 175 °C
CCc1cc(Cl)c2c(=O)cc(C(=O)O)[nH]c2c1	248 to 250 °C
CC(CC1COC(c2ccc(C(=O)Nc3ccc(C#N)cc3)cc2)OC1)C(O)(Cn1cncn1)c1ccc(F)cc1F (stereo not given)	159 °C
CCCCc1oc2ccc(C#N)cc2c1C(=O)c1ccc(OCCCN(CCCC)CCCC)cc1	85 to 87 °C
CCCCCCCCCCCCCCCCCC(=O)OCCOc1ccc(C2C(=O)Oc3c2cc(C(C)(C)C)cc3C(C)(C)C)cc1 (stereo not given)	54 to 60 °C
OCc1cccc2cc(Br)ccc12	72 to 75 °C
O=C(Nc1cccc2ccccc12)OCc1ccc(CO)cc1	158 to 159 °C
